Experimental findings from patent US11547644B2, “Emulsions comprising cationic emulsifiers based on MDIPA ester quats” (Evonik Operations GmbH, priority 2015, dated 2023) are described below.

Data set [1] in a line: Biodegradability in water, OECD 301. From the text:
(§1) Consequently, an emulsifier according to the invention (Example 2) was investigated compared to distearyldimonium chloride with the help of various OECD tests.

The subject of data set [2] is invertebrate aquatic animals. The experiment in a line: Acute Immobilization Test (OECD 202). Format: in vivo.
Excerpt: as §1

For the next data set, the system named is Daphnia Magna. The experiment in a line: Daphnia Magna Reproduction Test (OECD 211). The following applies: in vivo.
Excerpt: as §1

As to `CCCCCCCCCCCCCCCCCC[N+](C)(C)CCCCCCCCCCCCCCCCCC.[Cl-]` [Distearyldimonium Chloride], the Biodegradability in water result in data set [1] is listed as “OECD 301: 3% (28 d)”. In addition, the “Short-term toxicity towards invertebrate aquatic animals, EC50(48h)” value in data set [2] is recorded as “EC-50(48h) = 0.16 mg/l”. In the data set on Daphnia Magna, the “Long-term toxicity towards invertebrate aquatic animals, NOEC(21 d)” value was “NOEC(21 d) = 0.38 mg/l”.
